Consider one molecule from ChEMBL document CHEMBL3045889 (Pest Manag Sci, 2012).

The subject of this assay is Fusarium graminearum. The experiment in a line: Antifungal activity against Fusarium graminearum JT04 assessed as inhibition of mycelial growth. Format: functional, organism-based.

Regarding `COC(=O)Nc1nc2ccccc2[nH]1` [CARBENDAZIM], the MIC was above 200 µg/mL.

As usually defined, the MIC is the lowest concentration that inhibits growth of the organism.
